Laboratory results reported in patent US20260191807A1, “COMPOSITIONS AND METHODS FOR TREATMENT OF PRADER-WILLI SYNDROME” (ERX Pharmaceuticals Inc., priority 2022, published 2026).
Where two headings read alike, the source gives them in different places.

How the values were obtained:
C57BL/6 DIO mice [1] = assay: Body weights of C57BL/6 DIO mice during daily treatment; assay type: in vivo; details: Celastrol 0.2 mg/kg IP daily; for Body weights (expressed as a percentage of day-1 weight) / Body weights (in grams): Belaronib 0.3 mg/kg SC, mean
C57BL/6 DIO mice [2] = assay: Daily food intake of C57BL/6 DIO mice; assay type: in vivo; details: for Food intake (food weights in g/day): Belaronib 0.3 mg/kg SC, Celastrol 0.2 mg/kg IP daily, mean
Procedure: (§1) C57BL/6 mice were treated with test compound (Celastrol) or controls as shown in the table below from Day 1 to Day 15. […] One mouse was excluded from the study because it appeared resistant to nestlet shredding prior to treatment.
(§2) Male C57BL/6 DIO mice were obtained from Jackson Labs (Bar Harbor, ME). The mice arrived at ages 17 weeks and mice were housed 3 per cage on arrival. Prior to dosing in the study, the mice were singly housed.
(§3) All treatment volumes were 10 mL/kg. Utilizing the art-recognized nestlet shredding mouse model, […]. Celastrol and the vehicle control were administered intraperitoneally using a 30G needle. Beloranib was administered subcutaneously using a 30G needle. All treatments were administered daily in the afternoon at 17:00 h, 1 hour before dark cycle from Day 1 to end of dosing.
(§4) Celastrol was dissolved in a pharmaceutically-acceptable excipient, e.g., 50% Solutol/50% DMAC, and this stock solution aliquoted and stored at −80° C. until treatment day. On the day of treatment, an aliquot of the stock solution was thawed and diluted […] with saline to obtain the desired dosing solution strength in 5% Solutol/5% dimethylacetamide/90% saline. The vehicle control was 5% Solutol/5% dimethylacetamide/90% saline. Beloranib was dissolved in 100% DMSO, and this stock solution was aliquoted and stored at −80° C. until treatment day. On the day of treatment, an aliquot of the stock solution was thawed and diluted 1:10 with deionized (DI) water to obtain the desired dosing solution strength in 10% DMSO.
Daily food intake was calculated based on remaining food weight compared to food weight on the previous day using an Ohaus model CS 200 balance.

Participants with PWS = details: cited from earlier work; for weight change, mean difference: p<0.0001
C57BL/6 DIO mice [3] = assay: Nestlet shredding test in C57BL/6 DIO mice; assay type: in vivo; details: Belaronib 0.3 mg/kg SC, Celastrol 0.2 mg/kg IP daily, mean
Procedure: as §1, §2, §3, §4
The nestlet shredding test is an art-recognized animal model for human repetitive, anxiety, and/or compulsive behaviors. In the nestlet shredding test, a nestlet comprised of pulped fiber, e.g., cotton fiber, is preweighed and placed on top of cage bedding and the amount of the nestlet remaining intact after a test session of pre-determined time is evaluated.
Nestlet shredding was determined on day 1, day 6, day 11 and day 15 by placing a fresh nestlet prior to the dark cycle and measuring the weight of the remaining nestlet at 12 and 24 hours on an Ohaus model CS 200 balance. Percent shredding was calculated based on the initial nestlet weight.

In the case of `CO[C@@H]1[C@H](OC(=O)/C=C/c2ccc(OCCN(C)C)cc2)CC[C@]2(CO2)[C@H]1[C@@]1(C)O[C@@H]1CC=C(C)C` [Belaronib, Beloranib, reference compound], the “Body weights (expressed as a percentage of day-1 weight)” value (C57BL/6 DIO mice [1]; Day 1) is reported as 100.0%, the “Body weights (in grams)” value (C57BL/6 DIO mice [1]; Day 1) is reported as 46.4 grams and the “Body weights (expressed as a percentage of day-1 weight)” value (C57BL/6 DIO mice [1]; Day 2) is reported as 98.0%. For the same compound, the “Body weights (in grams)” value (C57BL/6 DIO mice [1]; Day 2) was 45.5 grams, the “Body weights (expressed as a percentage of day-1 weight)” value (C57BL/6 DIO mice [1]; Day 3) was 96.1% and the “Body weights (in grams)” value (C57BL/6 DIO mice [1]; Day 3) was 44.6 grams. For the same compound, the “Body weights (expressed as a percentage of day-1 weight)” value (C57BL/6 DIO mice [1]; Day 4) was 94.0%, the “Body weights (in grams)” value (C57BL/6 DIO mice [1]; Day 4) was 43.6 grams and the “Body weights (expressed as a percentage of day-1 weight)” value (C57BL/6 DIO mice [1]; Day 5) was 91.0%. For the same compound, the “Body weights (in grams)” value (C57BL/6 DIO mice [1]; Day 5) was 42.2 grams, the “Body weights (expressed as a percentage of day-1 weight)” value (C57BL/6 DIO mice [1]; Day 6) was 87.7% and the “Body weights (in grams)” value (C57BL/6 DIO mice [1]; Day 6) was 40.7 grams. The “Body weights (expressed as a percentage of day-1 weight)” value (C57BL/6 DIO mice [1]; Day 7) was 85.2%, the “Body weights (in grams)” value (C57BL/6 DIO mice [1]; Day 7) was 39.5 grams and the “Body weights (expressed as a percentage of day-1 weight)” value (C57BL/6 DIO mice [1]; Day 8) was 83.1%. The “Body weights (in grams)” value (C57BL/6 DIO mice [1]; Day 8) was 38.5 grams, the “Body weights (expressed as a percentage of day-1 weight)” value (C57BL/6 DIO mice [1]; Day 9) was 80.6% and the “Body weights (in grams)” value (C57BL/6 DIO mice [1]; Day 9) was 37.4 grams. For the same compound, the “Body weights (expressed as a percentage of day-1 weight)” value (C57BL/6 DIO mice [1]; Day 10) was 79.2%, the “Body weights (in grams)” value (C57BL/6 DIO mice [1]; Day 10) was 36.7 grams and the “Body weights (expressed as a percentage of day-1 weight)” value (C57BL/6 DIO mice [1]; Day 11) was 77.9%. For the same compound, the “Body weights (in grams)” value (C57BL/6 DIO mice [1]; Day 11) was 36.1 grams, the “Body weights (expressed as a percentage of day-1 weight)” value (C57BL/6 DIO mice [1]; Day 12) was 77.1% and the “Body weights (in grams)” value (C57BL/6 DIO mice [1]; Day 12) was 35.7 grams. For the same compound, the “Body weights (expressed as a percentage of day-1 weight)” value (C57BL/6 DIO mice [1]; Day 13) was 76.2%, the “Body weights (in grams)” value (C57BL/6 DIO mice [1]; Day 13) was 35.3 grams and the “Body weights (expressed as a percentage of day-1 weight)” value (C57BL/6 DIO mice [1]; Day 14) was 75.2%. For the same compound, the “Body weights (in grams)” value (C57BL/6 DIO mice [1]; Day 14) was 34.8 grams, the “Body weights (expressed as a percentage of day-1 weight)” value (C57BL/6 DIO mice [1]; Day 15) was 74.4% and the “Body weights (in grams)” value (C57BL/6 DIO mice [1]; Day 15) was 34.5 grams. For the same compound, the “body weight lost (percentage of day 1 body weight)” value (C57BL/6 DIO mice [1]; at day 15, Beloranib 0.3 mg/kg SC, vehicle-treated mice lost 15.5%) was 25.6%, the “cumulative food intake, average total for the study” value (C57BL/6 DIO mice [2]; 15-day study, Beloranib 0.3 mg/kg SC, celastrol 0.2 mg/kg IP daily, vehicle 32.6 g) was 28.1 g/mouse and the “effect on food intake (in words)” value (C57BL/6 DIO mice [2]; Celastrol compared with positive control Beloranib) was “rebounded”. For the same compound, the “Food intake (food weights in g/day)” value (C57BL/6 DIO mice [2]; Day 1) was 3.1 g/day, the “Food intake (food weights in g/day)” value (C57BL/6 DIO mice [2]; Day 2) was 1.5 g/day and the “Food intake (food weights in g/day)” value (C57BL/6 DIO mice [2]; Day 3) was 2.3 g/day. For the same compound, the “Food intake (food weights in g/day)” value (C57BL/6 DIO mice [2]; Day 4) was 1.9 g/day, the “Food intake (food weights in g/day)” value (C57BL/6 DIO mice [2]; Day 5) was 1.4 g/day and the “Food intake (food weights in g/day)” value (C57BL/6 DIO mice [2]; Day 6) was 1.2 g/day. For the same compound, the “Food intake (food weights in g/day)” value (C57BL/6 DIO mice [2]; Day 7) was 1.1 g/day, the “Food intake (food weights in g/day)” value (C57BL/6 DIO mice [2]; Day 8) was 1.5 g/day and the “Food intake (food weights in g/day)” value (C57BL/6 DIO mice [2]; Day 9) was 1.1 g/day. For the same compound, the “Food intake (food weights in g/day)” value (C57BL/6 DIO mice [2]; Day 10) was 1.9 g/day, the “Food intake (food weights in g/day)” value (C57BL/6 DIO mice [2]; Day 11) was 2.2 g/day and the “Food intake (food weights in g/day)” value (C57BL/6 DIO mice [2]; Day 12) was 2.6 g/day. The “Food intake (food weights in g/day)” value (C57BL/6 DIO mice [2]; Day 13) was 2.2 g/day, the “Food intake (food weights in g/day)” value (C57BL/6 DIO mice [2]; Day 14) was 2.2 g/day and the “Food intake (food weights in g/day)” value (C57BL/6 DIO mice [2]; Day 15) was 2.1 g/day. For the same compound, the “food intake after rebound, similar to vehicle” value (C57BL/6 DIO mice [2]; day 10-11, 0.3 mg/kg SC daily) was 2.2 g/day/mouse, the “food intake, nadir” value (C57BL/6 DIO mice [2]; reduction initiated on day 2-3, 0.3 mg/kg SC daily) was 1.1 g/day/mouse and the “weight change, mean difference” value (Participants with PWS; 1.8 mg beloranib injection biweekly for 26 weeks, 95% CI −10.8 to −5.6) was −8.2%. The “most frequent adverse event” value (Participants with PWS; 1.8 mg or 2.4 mg injection biweekly) was “Injection site bruising”, the “weight change, mean difference” value (Participants with PWS; 2.4 mg beloranib injection biweekly for 26 weeks, 95% CI −12.1 to −6.8) was −9.5% and the “venous thrombotic events in beloranib-treated participants” value (Participants with PWS; imbalance compared to placebo, dosing stopped early) was “two fatal events of pulmonary embolism and two events of deep vein thrombosis”. For the same compound, the “Nestlet Shredding (percent of nestlet shredded)” value (C57BL/6 DIO mice [3]; Day 1, 12 hour) was 95.5%, the “Nestlet Shredding (percent of nestlet shredded)” value (C57BL/6 DIO mice [3]; Day 6, 12 hour) was 11.9% and the “Nestlet Shredding (percent of nestlet shredded)” value (C57BL/6 DIO mice [3]; Day 6, 24 hour) was 15.7%. The “Nestlet Shredding (percent of nestlet shredded)” value (C57BL/6 DIO mice [3]; Day 11, 12 hour) was 3.8%, the “Nestlet Shredding (percent of nestlet shredded)” value (C57BL/6 DIO mice [3]; Day 11, 24 hour) was 5.2% and the “Nestlet Shredding (percent of nestlet shredded)” value (C57BL/6 DIO mice [3]; Day 15, 12 hour) was 27.6%. The “Nestlet Shredding (percent of nestlet shredded)” value (C57BL/6 DIO mice [3]; Day 15, 24 hour) was 32.9%.
